Tested on: SMN2-luciferase reporter
Test: SMN2-luciferase reporter assay (clonal HEK-293 SMN2-luc cells)
Type: cell-based, human
Set-up: % activation: concentration or dose not given beside the values
Conditions: for Active / % activation: reporter assay; for Active / EC50 / Emax: Table 6; for % activation: Table 5; for EC50 / Emax: Homo sapiens, HEK293, reporter assay; for EC50: read-out: Ec50; for Emax: read-out: Max % Activity
Protocol: The reporter cell lines were plated at 50,000 cells per well in 96-well plates and incubated overnight. Compounds were added to each well and incubated at 37° C. overnight. The final DMSO concentration was 0.1%. Luciferase activity was assayed using either STEADYGLO (PROMEGA E2510) or DUALGLO (PROMEGA E2920) luciferase using the WALLAC ENVISION multilabel reader. For detailed assay conditions see Table 2A. All data points were transformed from CPS to percent increase over basal expression in the treated control wells (DMSO or H2O as appropriate).
Plates were sealed with porous paper tape and incubated for 24 hours. […] For comparison, data points were transformed from CPS to percent activation over basal expression in the DMSO treated control wells.
For comparison, all data points are expressed as percent increase over basal luciferase expression in the control cells.

Row | EC50 | SMILES | Active | % activation | Emax
1 | – | COc1ccc2c(c1OC)C(c1cc(Br)ccc1F)CC(=O)N2 (stereo not drawn) [CAL-23] | No | – | –
2 | – | CC(C)(C)c1cc(C(=O)Nc2ccc(F)c(Cl)c2)no1 [LDN-211858] | No | – | –
3 | – | COc1cc2c(c(OC)c1OC)C(c1cc(Cl)ccc1F)CC(=O)N2 (stereo not drawn) [LDN-213769] | No | – | –
4 | – | COc1cc2c(c(OC)c1OC)C(c1cc(C=N)ccc1F)CC(=O)N2 (stereo not drawn) [LDN-212361] | No | – | –
5 | – | CNC(=O)c1ccc2nc(N3CCCCC3)sc2c1 [Compound 79213] | – | 90% | –
6 | 1700 nM | O=C(Nc1ccc2c(c1)OCO2)c1cc(C2CC2)on1 [CAL-33] | Yes | – | 217%
7 | – | COC1=CC2NC(=O)CC(c3cc([N+](=O)[O-])ccc3F)C2C(OC)=C1OC (stereo not drawn) [LDN-212354] | No/Weak | – | –
8 | – | CC(C)(C)c1cc(NC(=O)c2cnc3ccccc3n2)no1 [LDN-211907] | No/Weak | – | –
9 | – | COc1cc2c(c(OC)c1OC)C(c1ccc(Cl)c(Cl)c1)CC(=O)N2 (stereo not drawn) [LDN-212266] | No/Weak | – | –
10 | – | COc1cc2c(c(OC)c1OC)C(c1cc(F)ccc1F)CC(=O)N2 (stereo not drawn) [LDN-212353] | No/Weak | – | –
11 | – | COc1cc2c(c(OC)c1)C(c1cc3c(cc1Br)OCO3)CC(=O)N2 (stereo not drawn) [CAL-52] | No | – | –
12 | 3000 nM | CC(C)(C)c1cc(NC(=O)c2ccc(F)c(Cl)c2)no1 [LDN-211831] | Yes | – | 150%
13 | – | O=C(Nc1nnc(-c2ccccc2)s1)c1ccc(F)c(Cl)c1 [LDN-211982] | No | – | –
14 | – | COc1cc2c(c(OC)c1OC)C(c1ccnc(Cl)c1)CC(=O)N2 (stereo not drawn) [LDN-212393] | No/Weak | – | –
15 | – | COc1cc2c(c(OC)c1OCCO)C(c1cc(Cl)ccc1F)CC(=O)N2 (stereo not drawn) [LDN-213771] | No | – | –
16 | 6000 nM | COc1cc2c(c(OC)c1OC)C(c1cc(Cl)ccc1F)C(C)C(=O)N2 (stereo not drawn) [LDN-214085] | Yes | – | 180%
17 | 10000 nM | CC1CC(C(=O)Nc2ccc(F)c(Cl)c2)=NO1 (stereo not drawn) [CAL-8] | Weak | – | 120%
18 | 400 nM | CC(C)(O)c1cnc(NC(=O)c2ccc(F)c(Cl)c2)s1 [LDN-212255] | Yes | – | 117%
19 | 2600 nM | CC(C)c1cc(C(=O)Nc2ccc3c(c2)OCO3)no1 [LDN-75676] | Yes | 136% | 337%
20 | – | COc1cc2c(c(OC)c1OCCN1CCOCC1)C(c1cc(Cl)ccc1F)CC(=O)N2 (stereo not drawn) [LDN-213770] | No | – | –
21 | 10000 nM | O=C(Nc1ccc(Cl)cc1)C1=NOC(c2ccccc2)C1 (stereo not drawn) [CAL-7] | Yes | – | 134%
22 | – | O=C1CC(c2cc(Br)ccc2F)c2c(ccc3ccccc23)N1 (stereo not drawn) [LDN-212352] | No | – | –
23 | – | O=C(Nc1ccc(F)c(Cl)c1)c1noc(C2CC2)c1[N+](=O)[O-] [CAL-38] | No | – | –
24 | – | CC(C)c1cc(C(=O)Nc2cccc3ccccc23)no1 [LDN-211827] | No/Weak | – | –
25 | 400 nM | O=C(Nc1cc(C2(O)CCC2)ccn1)c1ccc(F)c(Cl)c1 [LDN-212256] | Yes | – | 114%
26 | 94000 nM | COc1ccc(NC(=O)c2cc(C(C)C)on2)cc1OC [CAL-26] | Yes | – | 160%

— patent publication US9212209B2, “Screening methods for spinal muscular atrophy” (Indiana University Research and Technology Corporation, priority 2012, dated 2015)
